Reference: patent US10960018B2, “Methods and compounds for stimulating read-through of premature termination codons” (The UAB Research Foundation, priority 2016, dated 2021)

How the values were obtained:
Assay type in all cases: cell-based, Rat
[1] = tested on: FRT wild-type CFTR control cells; experiment: Firefly luciferase reporter assay, wild-type control; settings: 300 to 500 μg/ml, 24 hours
Protocol: The luciferase assay was performed on a Pharmakon 1600 library to determine the efficacy of each compound in promoting read-through. 5 ul of each compound as a DMSO stock solution were dissolved in F-12 Ham medium and dispensed into separate wells of 384-well plates (Corning) using a BioMek FX. FRT cells (10,000 cells/well) containing the reporter gene construct (QXN UGAC) were then added using the Matrix WellMate. The plates were incubated for 24 hours at 37° C., 5% CO2, and 95% humidity, after which firefly luciferase activity was determined by equilibrating the plates to room temperature, adding an equal volume of Promega BrightGlo (Promega), and reading enhanced luminescence with an Envision Plate Reader (PerkinElmer) within 5 minutes. […]
To validate these cell lines, the cell lines were treated with G418, a read-through agent with established efficacy in vitro (Bedwell D M, et al.; Nat Med; 3:1280-1284; 1997), at doses up to from 300 to 500 μg/ml. An increase in luciferase activity indicates G418 stimulated read-through of the PTC in the constructs tested. […] For screening purposes, firefly luciferase levels were measured without assessment of Renilla expression as an indication of total construct expression.

FRT G542X cells = experiment: Transepithelial chloride conductance (TECC) assay in FRT G542X cells
Protocol: (§1) Stably transfected FRT cells as described herein cells were seeded onto Costar 24-well […] permeable supports at a density of ˜2×10^6 cells/filter and maintained at 37° C. with 5% CO2. Transepithelial resistance was assessed using an epithelial voltmeter to ensure the formation of tight monolayers, as defined by resistance >6 kcm^2. During initial evaluation of agents, cells were treated with compounds (10 μM), vehicle control (0.3% DMSO), or positive control (250 μg/mL G418) for 48 hours before transepithelial conductance (Gt) was assessed; subsequent studies used other concentrations of compounds. Measurements were taken at baseline, after the addition of 20 μM forskolin (FSK, a cAMP agonist that stimulates CFTR activity) and 10 μM CFTRInh-172 (a CFTR-specific inhibitor).
In the TECC assay, FRT G542X cells were treated with a single dose (10 μM) of each compound. FRT G542X cells were incubated for 48 hours with the compounds prior or vehicle control (0.3% DMSO). During the assay the baseline conductance (Gt) was initially determined prior to the acute addition of forskolin (20 μM) and VX-770 (10 μM) to stimulate CFTR activity; the CFTR inhibitor, CFTRInh-172 (10 μM), was added to inhibit CFTR activity at the end of the assay. In these experiments, an increase in CFTR conductance indicates the compounds stimulated read-through of the PTC in the constructs tested and that the CFTR was functional.
To prioritize which of the 48 read-through-positive compounds identified would be most efficacious in augmenting PTC read-through and restoring protein function, the TECC assay was repeated (in triplicate) using FRT G542X cells and FRT cells without CFTR (parental cells). Compounds (10 μM) or vehicle control (0.3% DMSO) were incubated for 48 hours with the cells. During the assay the baseline conductance (Gt) was initially determined prior to the acute addition of forskolin (20 μM) and VX-770 (10 μM) to stimulate CFTR activity; the CFTR inhibitor, CFTRInh-172 (10 μM), was added to inhibit CFTR activity at the end of the assay. G418 (250 μg/ml) was used as a positive control. In this assay, an increase in CFTR conductance indicates the compound stimulated read-through of the PTC in the constructs tested and that the CFTR was functional. The 48 compounds tested are provided in the Table 1 below (with the numerical designations corresponding to those shown in FIG. 4).
A series of functional assays was performed to evaluate the efficacy of these lead compounds in greater detail. Using FRT G542X cells, the optimal dose of each compound in augmenting chloride conductance (FIG. 5A) was determined. FRT G542X cells were incubated with compound (1 μM to 30 μM), G418 (250 μg/mL) or vehicle control (0.3% DMSO) for 48 hours. The conductance assay was conducted as described in Example 2 above. In this assay, an increase in CFTR conductance indicates the compounds stimulated read-through of the PTC in the constructs tested and that the CFTR was functional.

FRT W1282X cells = experiment: Transepithelial chloride conductance assay in FRT W1282X cells; settings: 48 hours; escin 10 μM, G418 250 μg/ml, VX-770 10 μM, VX-809 6 μM, NMDI-14 20 μg/ml, tobramycin 150, gentamicin 250 μg/ml
Protocol: as §1
Individual assays were performed as described herein.
As previously reported in the literature, the combination of CFTR correctors (such as VX-809) and CFTR potentiators (such as VX-770) act synergistically to improve CFTR function. […] Compounds alone or in the indicated combination were pre-incubated with FRT W1282X cells for 48 hours. During the assay the baseline conductance (Gt) was initially determined prior to the acute addition of forskolin (20 μM) and VX-770 (10 μM) to stimulate CFTR activity; the CFTR inhibitor, CFTRInh-172 (10 μM), was added to inhibit CFTR activity at the end of the assay. Enhancement of PTC read-through by the compounds of the present disclosure was determined by an increase in CFTR conductance. CFTR conductance also indicated the CFTR was functional as a result of the read-through of the PTC.
Compounds alone or in the indicated combination were pre-incubated with FRT G542X cells for 48 hours. […] Enhancement of PTC read-through by the compounds of the present disclosure was determined by an increase in CFTR conductance. CFTR conductance also indicated the CFTR was functional as a result of the read-through of the PTC.
It has been reported that aminoglycosides interfere with the action read-through stimulating compound. […] CFTR conductance also indicated the CFTR was functional as a result of the read-through of the PTC.
Stimulation of CFTR activity was determined by an increase in CFTR conductance. […] During the assay the baseline conductance (Gt) was initially determined prior to the acute addition of forskolin (20 μM) and GP-5 (10 μM) to stimulate CFTR activity; the CFTR inhibitor, […] (10 μM), was added to inhibit CFTR activity at the end of the assay.
The effect of the read-through stimulating compounds of the present disclosure in combination with the CFTR corrector VX-809 was further examined in FRT cells with the G542X, Y122X and W1282X mutations. […] CFTR conductance also indicated the CFTR was functional as a result of the read-through of the PTC.

Compound	firefly luciferase activity compared to DMSO-treated vehicle [1]	incubation time of maximal effect on forskolin-induced conductance (FRT G542X cells; 250 μg/ml, 0 to 72 hours) [h]	signal intensity at 48 hrs pre-incubation (FRT G542X cells; 250 μg/ml, relative to maximal effect at 72 hrs) [%]	CFTR function (conductance) in presence of VX-770 and forskolin (FRT G542X cells; 48 hours, escin 10 μM, NMDI-1 80 μg/ml, NMDI-14 20 μg/ml)	CFTR function (conductance) in presence of forskolin and VX-770 (FRT W1282X cells)
CN[C@@H]1[C@@H](O)[C@@H](O[C@@H]2[C@@H](O)[C@H](O[C@H]3O[C@H]([C@@H](C)O)[C@@H](O)[C@H](O)[C@H]3N)[C@@H](N)C[C@H]2N)OC[C@]1(C)O [G418, geneticin]	no significant effect	72	> 75	–	–
CCOC(=O)c1c(NC(=O)CC2Nc3cc(C)c(C)cc3NC2=O)sc(C)c1C (stereo not shown) [NMDI-14]	–	–	–	significantly increased	significantly increased
NC[C@H]1O[C@H](O[C@H]2[C@H](O)[C@@H](O[C@H]3O[C@H](CO)[C@@H](O)[C@H](N)[C@H]3O)[C@H](N)C[C@@H]2N)[C@H](N)C[C@@H]1O [tobramycin]	–	–	–	–	did not stimulate CFTR function
gentamicin	–	–	–	–	did not stimulate CFTR function
